Assay results published in article PMC3726336, “Product inhibition of cellulases studied with ^14C-labeled cellulose substrates” (Biotechnology for Biofuels, 2013).

Columns and labels:
[1] = target: T1, TrCel7A (Trichoderma reesei, UniProt P62694); parameters: method as in PMID 22733813; conditions: read-out: IC50 for cellobiose, 14C-BC substrate, 25°C; cited from earlier work
T1 construct: TrCel7A was purified from the culture filtrate of Tr QM 9414 as described previously; made in house; host or cells: Trichoderma reesei QM 9414 culture filtrate (native producer)
T1 sequence (P62694 18-513): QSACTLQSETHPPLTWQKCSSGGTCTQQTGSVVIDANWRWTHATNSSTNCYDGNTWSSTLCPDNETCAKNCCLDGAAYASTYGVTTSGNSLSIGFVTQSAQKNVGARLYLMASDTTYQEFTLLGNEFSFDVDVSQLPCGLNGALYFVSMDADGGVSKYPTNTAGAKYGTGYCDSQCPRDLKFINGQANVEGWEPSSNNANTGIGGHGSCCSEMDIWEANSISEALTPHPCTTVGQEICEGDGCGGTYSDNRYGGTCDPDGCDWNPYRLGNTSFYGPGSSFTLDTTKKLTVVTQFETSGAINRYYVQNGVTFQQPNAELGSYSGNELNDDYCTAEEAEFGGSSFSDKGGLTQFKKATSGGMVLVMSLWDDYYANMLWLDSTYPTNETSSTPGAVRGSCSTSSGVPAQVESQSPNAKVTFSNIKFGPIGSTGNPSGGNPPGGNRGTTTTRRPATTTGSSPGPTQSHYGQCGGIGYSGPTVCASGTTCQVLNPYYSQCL

[2] = target: CtCel6A (Chaetomium thermophilum, UniProt G0SD43); test: Inhibition of hydrolysis of 14C-BMCC by CtCel6A; assay type: biochemical; conditions: cellobiose; hydrolysis of 14C-BMCC by CtCel6A at 50°C
Chain of CtCel6A (G0SD43 entry or part of it): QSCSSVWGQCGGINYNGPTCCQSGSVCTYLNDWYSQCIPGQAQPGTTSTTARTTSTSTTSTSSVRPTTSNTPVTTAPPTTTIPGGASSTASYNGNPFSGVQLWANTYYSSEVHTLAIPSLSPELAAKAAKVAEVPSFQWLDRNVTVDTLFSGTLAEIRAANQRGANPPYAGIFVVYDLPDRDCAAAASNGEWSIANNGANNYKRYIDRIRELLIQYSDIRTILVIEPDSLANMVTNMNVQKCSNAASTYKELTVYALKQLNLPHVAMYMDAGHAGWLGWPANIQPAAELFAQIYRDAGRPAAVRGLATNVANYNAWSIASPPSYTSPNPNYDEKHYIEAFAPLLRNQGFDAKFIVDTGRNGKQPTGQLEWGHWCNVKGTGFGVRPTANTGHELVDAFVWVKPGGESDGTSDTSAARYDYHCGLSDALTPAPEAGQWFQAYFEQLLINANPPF
Source text: Here, we characterized the cellobiose and glucose inhibition of TrCel6A and its thermophilic counterpart, CtCel6A [9, 63]. First, the cellobiose inhibition of the synergistic hydrolysis of ^14C-BC by TrCel6A and TrCel5A was studied (Figure 7A). As TrCel6A was less sensitive to cellobiose inhibition than TrCel7A, the contribution of the cellobiose released during hydrolysis was not significant, and an average (DCB/DCB=0) over all time points was used in plotting (DCB/DCB=0) versus [cellobiose] (Figure 7D). No significant systematic variation of DCB/DCB=0 depending on hydrolysis time was observed. As in the case of GH7 CBHs, the IC50 value was found using Equations 5 and 6. Because the IC50 value for synergistic hydrolysis (Table 3) was of the same order as the apparent Ki value reported for TrCel5A [31], we further tested the inhibition of individual TrCel6A. BC is not a good substrate for TrCel6A, but its acid-treated derivative, BMCC, is readily degraded by the enzyme. Therefore, we prepared ^14C-BMCC by the heterogeneous acid hydrolysis of ^14C-BC. […]
GH6 CBHs were assessed by observing the hydrolysis of ^14C-BMCC. ^14C-BMCC (0.25 g l^-1) was incubated (with shaking at 350 rpm) with CBH (0.25 μM) and N188BG (0.06 μM) in 50 mM sodium acetate buffer, pH 5.0, containing BSA (0.1 g l^-1). […]

[3] = target: T2, TrCel7B (Trichoderma reesei, UniProt P07981); parameters: method as in PMID 15129433; conditions: 3H-reduced amorphous cellulose substrate, read-out: apparent Ki value; cited from earlier work
T2 construct: TrCel7B, TrCel5A, and TrCel12A were purified from the culture filtrate of Tr QM 9414; made in house; host or cells: Trichoderma reesei QM 9414 culture filtrate (native producer)
T2 sequence (P07981 23-459): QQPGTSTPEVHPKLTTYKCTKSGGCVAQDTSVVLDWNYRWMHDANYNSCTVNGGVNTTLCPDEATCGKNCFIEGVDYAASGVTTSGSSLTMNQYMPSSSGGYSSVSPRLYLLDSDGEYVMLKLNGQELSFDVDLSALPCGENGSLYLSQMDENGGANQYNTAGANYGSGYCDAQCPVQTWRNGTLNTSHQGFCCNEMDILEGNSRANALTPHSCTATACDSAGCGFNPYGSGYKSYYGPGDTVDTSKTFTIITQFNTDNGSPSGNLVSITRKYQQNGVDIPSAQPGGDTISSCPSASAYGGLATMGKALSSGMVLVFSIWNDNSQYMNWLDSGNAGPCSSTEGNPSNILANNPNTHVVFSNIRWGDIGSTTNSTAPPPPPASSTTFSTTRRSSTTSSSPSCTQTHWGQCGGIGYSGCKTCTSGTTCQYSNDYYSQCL

In the case of `O=C[C@H](O)[C@@H](O)[C@H](O[C@@H]1O[C@H](CO)[C@@H](O)[C@H](O)[C@H]1O)[C@H](O)CO` [cellobiose, Cellobiose], the IC50 [1] is listed as 0.38 ± 0.03 mM, the IC50 [2] is listed as 28 ± 4.5 mM and the Ki [3] is listed as 11 ± 3 mM.
